Assay results taken from publication PMC8703450, “New Heterocyclic Combretastatin A-4 Analogs: Synthesis and Biological Activity of Styryl-2(3H)-benzothiazolones” (Pharmaceuticals, 2021).

What was measured:
[1] = test system: EA.hy926 cells; experiment: Matrigel tube disruption assay; format: cell-based, human; details: EA.hy926 on Matrigel, 24 h of treatment
Protocol: The tube formation assay was performed in 96-well plates coated with 40 µL BD Matrigel™ (basement membrane matrix), following the manufacturer’s instruction (BD Biosciences). A total of 2 × 10^4 EA.hy926 cells was re-suspended in growth medium and added to each well in a final volume of 100 µL. Tube formation was visualized directly using a light microscope. Images were captured using a phase-contrast microscope and quantitation was performed using the WimTube application of the Wimasis online image analysis platform (https://www.wimasis.com/en/products/13/WimTube; accessed on 1 June 2021).

[2] = test system: rhodamine-labeled α,β-tubulin; experiment: Ex vivo rhodamine-tubulin polymerization (fluorescence microscopy); details: 20 μM, 37 °C, 45 min
Protocol: TAMRA-Tubulin (TL590M, Cytoskeleton) diluted in GTB buffer (PEM, 10% glycerol, 1 mM GTP) was mixed with unlabeled α,β-tubulin (T240, Cytoskeleton) at a ratio of 1:3 (v/v) to a concentration of 4.0 mg/mL. […] Samples were then centrifuged for 20 min at 30,000× g. The pellets were diluted in 6 µL PEM buffer, containing 1 mM GTP and 0.5% glutaraldehyde, mixed with anti-fade mounting media (P36934, Invitrogen, Eugene, USA), and examined under a confocal LSM 980 Airyscan microscope (Carl Zeiss AG, Oberkochen, Germany).

[3] = test system: MCF-10A cells; experiment: MTT cytotoxicity assay, MCF-10A control cells; format: cell-based, human; details: Homo sapiens, 72 h
Protocol: (§1) All tested compounds were dissolved in DMSO at 25 mM initial concentration and diluted with medium to obtain the working concentrations (0.01 nM–250 µM). Serial drug dilutions were prepared in medium immediately before each experiment. The DMSO working concentration in the medium was […]. For the MTT assay, cells were seeded into 96-well microtitre plates at a density of 1 × 10^4 in 100 µL complete medium per well. They were further incubated for 24 h, followed by treatment with CA-4 analogs up to 72 h. Cell viability was determined using the MTT assay. Ten µL of MTT solution (5 mg/mL) was added to each well and further incubated for 3 h at 37 °C. To dissolve the formazan product, 100 µL/well of 99.5% isopropanol was added. Cell viability was determined by measuring absorbance at 550/630 nm using a DTX880 plate reader (Beckman Coulter, USA). Results, expressed as concentrations that inhibit 20% (IC20), 50% (IC50), and 80% (IC80) of cell growth, were calculated using GraphPad Prism 8.0.1.
(§2) Table S 3.1. Description of eukaryotic cell lines used for MTT assay.
(§3) Panel Cell line Origin Tissue, characteristics Source Culture conditions […]
(§4) (h) lung carcinoma ATCC, CCL-185 U/mL penicillin, 100 […]
(§5) lung, bronchus; insulin, rhEGF, GA-BEAS-2B h epithelial virus ATCC, CRL- 1000, BPE, transformed 9609 transferrin,
(§6) HT-29 h colon, colorectal Radostina adenocarcinoma Alexandrova 3.1 g/L D-Glucose […]

[4] = test system: EA.hy926 cells; experiment: MTT cytotoxicity / growth inhibition assay, EA.hy926; format: cell-based, human; details: Homo sapiens; for IC50: EA.hy 926, 72 h of treatment
Protocol: The endothelial cell line (EA.hy926) was kindly provided by Dr. C-J.S. Edgell—University of North Carolina, USA. Cells were cultured in 4.5 g/L D-Glucose DMEM/F12 medium, supplemented with 10% fetal bovine serum (FBS, Cytogen GmBH, Greven, Germany) and 100 U/mL penicillin and streptomycin (Lonza BioWhitaker, Verviers, Belgium). The other cell lines used are described in Table S3.1. Cell cultures were maintained in an incubator at 37 °C with 95% humidity and 5% CO2 and were routinely found free of mycoplasma.
as §1

[5] = test system: EA.hy926 cells; experiment: In vitro cell migration (wound-healing) assay; format: cell-based, human; details: 24 h
Protocol: A total of 3 × 10^5 EA.hy926 cells were seeded in a 12-well plate and grown close to the confluence. The cell monolayer was gently scraped with a P200 pipette tip, creating a wound area around 1-mm wide. Cells were washed twice with fresh medium and treated with test compounds diluted in growth media to the corresponding sub-toxic concentrations. Images were acquired at 0 and 24 h following treatment. After incubation for 24 h, the scratch wound width was measured and recorded, and then compared with the initial scratch wound width at 0 h. Using the ImageJ image processing program (ImageJ150-WIN-Java8), the size of the denuded area in pixels was determined at each time point from the digital images.

[6] = test system: Colon-26 cells; experiment: MTT cytotoxicity assay, Colon-26; format: cell-based; details: Mus musculus, 72 h
Protocol: as §1, §2, §3, §4, §5, §6

[7] = test system: MCF-7 cells; experiment: MTT cytotoxicity assay, MCF-7; format: cell-based, human
Protocol: as §1
Table S 3.1. Description of eukaryotic cell lines used for MTT assay. […]
Kindly provided 3.1 g/L Glucose,
mammary by Prof. Iana DMEM/F12 with
Breast MDA- gland/breast; derived Tsoneva 10% FBS, 100 U/mL
MB-231 h from metastatic site: (IBPhBME – penicillin, 100 U/mL
pleural effusion; BAS) streptomycin (Lonza). […]

[8] = MTT cytotoxicity assay, MCF-10A control cells; format: cell-based, human; details: human, read-out: Cytostatic activity (% viable cells)
Protocol: as §1, §2, §3, §4, §5, §6

[9] = test system: EA.hy926 cells; experiment: Cell cycle analysis (propidium iodide, flow cytometry); format: cell-based, human; details: 300 nM 26Z or 10 nM CA-4
Protocol: A total of 5 × 10^5 cells was treated with 26Z and CA-4 for time-response assays. Cells were collected by scraping, pelleted, washed with cold PBS (1×), and fixed overnight at 4 °C with 1 mL of ice-cold methanol–acetone (1:1), added dropwise to the pellet while vortexing. Pellets were resuspended and washed in 500 μL of PBS (1×), then permeabilized with a Triton X-100 (0.05–0.1%)/DNA extraction buffer (0.2 M Na2HPO4, 0.04 M citric acid, pH 7.8) in a 1:1 ratio for 15 min. After that, pelleted cells were treated with RNAse A (20 μg/mL) and labeled with 10 μg/mL of propidium iodide (Sigma-Aldrich) by incubation at 37 °C for at least 30 min, protected from light. DNA content was measured using a FACS Calibur flow cytometer ([…], NJ, USA), and cell cycle analysis was performed with FlowJo software (version 8.7). At least 10,000 events were recorded for each sample measured in duplicate.

| SMILES | decrease of branching points ([1]; equitoxic IC50 concentration) [%] | reduction of loop numbers ([1]; equitoxic IC50 concentration) [%] | fluorescent microtubule fiber formation [2] | IC50 [3] [nM] | IC50 [4] [nM] | remaining mean wound opened area ([5]; EA.hy926, 1 nM) [%] | IC50 [6] [nM] | Cytostatic activity (% viable cells) ([7]; MCF-7 cells, 72 h, MTT, in the concentration range studied) [%] | reduction in cumulative tube length ([1]; IC50 concentration, compared with time 0) | viability at 72 h [8] [%] | cells in G2/M ([9]; EA.hy926, 4 h) | cells in G2/M ([9]; EA.hy926, 24 h) | IC20 ([4]; EA.hy 926, concentration that inhibits 20% of cell growth) [nM] | IC80 ([4]; EA.hy 926, concentration that inhibits 80% of cell growth) [nM] | remaining mean wound opened area ([5]; EA.hy926, 50 nM) [%] | IC50 ([7]; Homo sapiens, MCF7, 72 h) [nM] |
| --- | --- | --- | --- | --- | --- | --- | --- | --- | --- | --- | --- | --- | --- | --- | --- | --- |
| COc1ccc(/C=C\c2cc(OC)c(OC)c(OC)c2)cc1O [CA-4, Combretastatin A-4] | 50 | 56 ± 3 | blocked the process of fiber formation | 1640 ± 340 | 3.3 ± 0.2 | 24.4 | 660 ± 82 | 40 |  |  |  |  |  |  |  |  |
| COc1cc(/C=C\c2ccc3c(c2)sc(=O)n3C)cc(OC)c1OC [Compound 26Z, (Z)-3-methyl-6-(3,4,5-trimethoxystyryl)-2(3H)-benzothiazolone] | 63 |  | blocked the process of fiber formation |  | 130 ± 10 |  |  |  | ~ 70% | 65 | ~ 35% | ~ 78% | 40 ± 10 | 300 ± 40 | 49 | 2420 ± 480 |
